Test results published in patent US20210137960A1, “COMPOSITIONS AND METHODS FOR INHIBITION OF NUCLEAR-PENETRATING ANTIBODIES” (Yale University, priority 2018, published 2021).
Like-named read-outs stand apart in the source and are kept apart here.

B1: variant 10: humanized 3E10 variant, SEQ ID NOS:14, 22, and 32 (protein)
chain 1: EVQLVESGGGLVQPGGSLRLSCAASGFTFSNYGMHWVRQAPGKGLEWVSYISSSSSTIYYADSVKGRFTISRDNAKNSLYLQMNSLRAEDTAVYYCARRGLLLDYWGQGTTVTVSS
chain 2: DIQMTQSPSSLSASVGDRVTITCRASKSVSTSSYSYMHWYQQKPGKAPKLLIKYASYLESGVPSRFSGSGSGTDFTLTISSLQPEDFATYYCQHSREFPWTFGQGTKVEIK
chain 3: DIQMTQSPSSLSASVGDRVTITCRASKSVSTSSYSYMHWYQQKPGKAPKLLIKYASYLESGVPSRFSGSGSGTDFTLTISSLQPEDFATYYCQHSREFPWTFGQGTKVEIKRADAAPGGGGSGGGGSGGGGSEVQLVESGGGLVQPGGSLRLSCAASGFTFSNYGMHWVRQAPGKGLEWVSYISSSSSTIYYADSVKGRFTISRDNAKNSLYLQMNSLRAEDTAVYYCARRGLLLDYWGQGTTVTVSSASTKGPSVFPLAPLESSGSDIQMTQSPSSLSASVGDRVTITCRASKSVSTSSYSYMHWYQQKPGKAPKLLIKYASYLESGVPSRFSGSGSGTDFTLTISSLQPEDFATYYCQHSREFPWTFGQGTKVEIKRADAAPGGGGSGGGGSGGGGSEVQLVESGGGLVQPGGSLRLSCAASGFTFSNYGMHWVRQAPGKGLEWVSYISSSSSTIYYADSVKGRFTISRDNAKNSLYLQMNSLRAEDTAVYYCARRGLLLDYWGQGTTVTVSS
B2: variant 13: humanized 3E10 variant, SEQ ID NOS:17, 23, and 35, expressed in a CHO cell system (protein)
chain 1: EVQLVESGGGLVQPGGSLRLSCAASGFTFSNYGMHWVRQAPGKGLEWVSYISSGSSTIYYADSVKGRFTISRDNAKNSLYLQMNSLRAEDTAVYYCARRGLLLDYWGQGTTVTVSS
chain 2: DIQMTQSPSSLSASLGDRATITCRASKTVSTSSYSYMHWYQQKPGQPPKLLIKYASYLESGVPSRFSGSGSGTDFTLTISSLQPEDAATYYCQHSREFPWTFGGGTKVEIK
chain 3: DIQMTQSPSSLSASLGDRATITCRASKTVSTSSYSYMHWYQQKPGQPPKLLIKYASYLESGVPSRFSGSGSGTDFTLTISSLQPEDAATYYCQHSREFPWTFGGGTKVEIKRADAAPGGGGSGGGGSGGGGSEVQLVESGGGLVQPGGSLRLSCAASGFTFSNYGMHWVRQAPGKGLEWVSYISSGSSTIYYADSVKGRFTISRDNAKNSLYLQMNSLRAEDTAVYYCARRGLLLDYWGQGTTVTVSSASTKGPSVFPLAPLESSGSDIQMTQSPSSLSASLGDRATITCRASKTVSTSSYSYMHWYQQKPGQPPKLLIKYASYLESGVPSRFSGSGSGTDFTLTISSLQPEDAATYYCQHSREFPWTFGGGTKVEIKRADAAPGGGGSGGGGSGGGGSEVQLVESGGGLVQPGGSLRLSCAASGFTFSNYGMHWVRQAPGKGLEWVSYISSGSSTIYYADSVKGRFTISRDNAKNSLYLQMNSLRAEDTAVYYCARRGLLLDYWGQGTTVTVSS
B3: 5C6: monoclonal anti-DNA antibody with nucleolytic activity from MRL/lpr lupus mouse model hybridoma (antibody, listed as Mus musculus, V domains shown)
VL: DIVLTQSPASLAAVSLGERATISYRASKSVSTSGYSYMHWNQQKPGQAPRLLIYLVSNLESGVPARFSGSGSGTDFTLNIHPVEEEDAATYYCQHIRELDTFFGGGTKLEIK
VH: QLKLVESGGGLVKPGGSLKLSCAASGFTFSSYTMSWVRQTPAKRLEWVATISSGGGSTYYPDSVKGRFTISRDNARNTLYLQMSSLRSEDTAMYYCARRAYSKRGAMDYWGQGTSVTVSS

What was measured:
DLD1 cells [1] = assay: SLE sera nuclear import with nuclear import inhibitors, anti-human IgG immunostain; type: cell-based; settings: for effect on nuclear uptake of ANAs in SLE-19: SLE-19 serum
Description: DLD1 cells were pre-treated with either control media, or media containing nuclear import inhibitors for four hours. Subsequent co-treatment with inhibitor and patient SLE serum (diluted 1:50) was performed for one hour at 37° C. Following treatment, cells were fixed, blocked and probed with an alkaline-phosphatase anti-human IgG […] antibody overnight (Fisher Scientific). Cell monolayers were washed, and color developed using NBT/BCIP reagent (Fisher Scientific) for the same duration across all experiments. Following chromogen color development, all monolayers were washed, and brightfield images acquired immediately on an Evos F microscope.

A549 lung cancer cells = assay: Protein L immunodetection of variant 13 nuclear penetration with importin pathway inhibitors, A549; type: cell-based; settings: 10 μM variant 13 co-incubated with 0, 10, 25, or 50 μM inhibitor
Description: (§1) For all experiments, cells were cultivated overnight to allow for attachment, followed by pretreatment with either control medium (absence of inhibitor), or medium containing inhibitor for durations previously-reported in the literature (see Table 5, below).
(§2) For endocytosis inhibition experiments, cells were cultivated in serum-free medium containing 1% v/v BSA to deplete endogenous serum levels. Following preincubation with inhibitors, cells were treated with either control medium or 10 μM variant 13, and the same dose of small molecule inhibitor for a further 30 minutes. For all experiments, cells were washed thrice, followed by immediate fixation with pre-chilled ice-cold ethanol. Subsequently, treated cells were probed using a protein L immunodetection approach to probe variant 13 nuclear uptake (Rattray et al., Biochem Biophys Res Commun 496, 858-864 (2018)). All monolayers were immediately imaged following color development on an Evos Fl microscope.
(§3) DLD-1 and A549 cells were treated with 10 μM variant 13 co-incubated with 0, 10, 25, or 50 μM concentrations of ivermectin. Relative intensity of protein L nuclear staining as compared to amount of stain in cells treated without ivermectin was also quantified by ImageJ.
(§4) DLD-1 cells and A549 cells were treated with 10 μM variant 13 co-incubated with 0, 10, 25, or 50 μM concentrations of importazole and then immunostained for protein L.
(§5) DLD-1 cells and A549 cells were treated with 10 μM variant 13 co-incubated with 0, 10, 25, or 50 μM concentrations of mifepristone and then immunostained for protein L.

DLD1 colon cancer cells = assay: Protein L immunodetection of variant 13 nuclear penetration with importin pathway inhibitors, DLD1; type: cell-based; settings: 10 μM variant 13 co-incubated with 0, 10, 25, or 50 μM inhibitor
Description: as §1, §2, §3, §4, §5

MCF7 breast cancer cells = assay: Uptake of rhodamine-labeled variant 13 in live cells, light and fluorescence microscopy, MCF7; type: cell-based; settings: 50 μM ivermectin
Description: Live MCF7 breast cancer cells were treated with control or rhodamine-labeled variant 13 (Rh-variant 13)+/−50 μM ivermectin and were then visualized under light and fluorescence microscopy.

DLD1 cells [2] = assay: Nuclear penetration of scleroderma autoantibody SSC and effect of ivermectin, microscopic analysis; type: cell-based
From the text: In addition to SLE, cell-penetrating autoantibodies are detected in other autoimmune diseases such as scleroderma. […] SSC was expressed in and purified from HEK293T cells.

DLD1 cancer cells = assay: Uptake of rhodamine-labeled variant 13 in live cells, light and fluorescence microscopy, DLD1; type: cell-based; settings: 50 μM importazole
Description: Live DLD1 cancer cells were treated with control or rhodamine-labeled variant 13 (Rh-variant 13)+/−50 μM importazole and were then visualized under light and fluorescence microscopy.

cell nuclei [3] = assay: Nuclear penetration of humanized 3E10 variants compared with original 3E10 (D31N) di-scFv; type: cell-based; settings: for Nuclear localizing?: humanized 3E10 variants; for nuclear penetration compared to the prototype: vs original 3E10 (D31N) di-scFv
From the text: A range of humanized 3E10 variants were generated with subtle differences in framework and CDR sequences.

cell nuclei [4] = settings: known anti-dsDNA autoantibodies; cited from earlier work

Molecule	effect on nuclear penetration by variant 13 (A549 lung cancer cells)	effect on nuclear penetration by variant 13 (DLD1 colon cancer cells)	effect on nuclear uptake of ANAs in SLE-19 (DLD1 cells [1])	Nuclear localizing? (cell nuclei [3])	nuclear penetration compared to the prototype (cell nuclei [3])	other results
22,23-dihydroavermectin B1a/B1b [ivermectin]	dose-dependent reduction in nuclear penetration	dose-dependent reduction in nuclear penetration				effect on nuclear staining by ANAs in SLE sera (DLD1 cells [1]; SLE-4, 8, 9, and 19 serum diluted 1:50, pre- and co-treatment): reduced the nuclear staining associated with each sample; effect on cellular/nuclear uptake of rhodamine-labeled variant 13 (MCF7 breast cancer cells): inhibited cellular/nuclear uptake; effect on nuclear uptake of SSC (DLD1 cells [2]): inhibited the nuclear uptake of SSC
CC(Nc1nc(N2CCCC2)nc2ccccc12)c1ccccc1 (centres unmarked) [importazole, N-(1-phenylethyl)-2-pyrrolidin-1-ylquinazolin-4-amine]	reduction in nuclear penetration	reduction in nuclear penetration	inhibit nuclear uptake of ANAs in SLE-19 in a dose-dependent manner			effect on nuclear uptake of rhodamine-labeled variant 13 (DLD1 cancer cells): inhibited nuclear uptake
CC#C[C@]1(O)CC[C@H]2[C@@H]3CCC4=CC(=O)CCC4=C3[C@@H](c3ccc(N(C)C)cc3)C[C@@]21C [mifepristone, 11β-(4-Dimethylamino)phenyl-170-hydroxy-17-(1-propynyl)-estra-4,9-dien-3-one]	reduction in nuclear penetration	reduction in nuclear penetration	inhibit nuclear uptake of ANAs in SLE-19 in a dose-dependent manner			
B1				Yes	penetrated nuclei very well	
B2				Yes	penetrated nuclei very well	
B3						Nuclear localizing? (cell nuclei [4]): Yes
